# Key:
# tumor cell catalase = target: T1, tumor cell catalase (Homo sapiens, UniProt P04040); assay: Catalase inhibition/inactivation in MKN-45 cells by challenge with exogenous peroxynitrite, NO donor or glucose oxidase; type: cell-based; set-up: endogenous in cells; host or cells: MKN-45 gastric carcinoma cells; details: 200 μM peroxynitrite
# T1 sequence (P04040 2-527 limits assumed): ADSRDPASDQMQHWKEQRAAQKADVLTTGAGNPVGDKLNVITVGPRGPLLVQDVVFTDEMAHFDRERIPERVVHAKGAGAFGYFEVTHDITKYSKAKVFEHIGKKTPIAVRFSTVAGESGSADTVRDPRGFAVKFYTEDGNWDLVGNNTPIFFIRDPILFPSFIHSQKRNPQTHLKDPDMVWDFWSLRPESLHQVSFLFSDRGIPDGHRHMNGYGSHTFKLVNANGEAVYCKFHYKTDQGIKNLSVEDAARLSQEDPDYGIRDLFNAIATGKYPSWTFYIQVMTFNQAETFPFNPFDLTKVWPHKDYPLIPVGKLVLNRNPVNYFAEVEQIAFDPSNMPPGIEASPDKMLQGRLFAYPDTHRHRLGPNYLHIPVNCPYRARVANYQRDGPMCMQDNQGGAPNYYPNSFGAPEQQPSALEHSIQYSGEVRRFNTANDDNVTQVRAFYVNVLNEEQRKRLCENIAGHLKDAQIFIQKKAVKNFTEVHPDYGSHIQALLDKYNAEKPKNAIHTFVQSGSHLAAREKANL
# Procedure: Direct catalase inhibition with relevance to the induction of apoptosis in tumor cells can be determined by pre-incubating tumor cells at first in the presence of the singlet oxygen scavenger histidine (2 mM) with the substance to be tested in increasing concentration (between 10 and 30 minutes at 37° C.) and subsequently adding peroxynitrite in the concentration range between 10 and 200 μM. The tumor cells are protected from the apoptosis-triggering effect of peroxynitrite by their membranous catalase. An inhibition of the catalase partially or completely cancels this protection and in the presence of peroxynitrite leads to the induction of apoptosis. The presence of 2 mM histidine ensures that the measured induction of apoptosis is not a singlet oxygen-mediated inactivation of the catalase by destruction of its active center. Alternatively, instead of addition of histidine inhibition of the NADPH oxidase by 100 μM AEBSF may take place. With prevented superoxide anion production also no singlet oxygen formation in the test system is possible.
# 4000 MKN-45 cells per 100 μl in […] were treated with increasing concentrations of monoclonal antibodies against catalase “Anti-KAT” or Anti-EGFR. After 15 minutes either 200 μM peroxynitrite (“PON”), 0.5 mM DEA-NONOate (rapidly decomposing NO donor), or 2 mU/ml glucose oxidase (GOX) that continuously generates hydrogen peroxide were added. After another two hours at 37° C. the percentages of apoptotic cells were determined in duplicate batches.
# The principle of identification is based on the fact that tumor cells (here MKN-45 gastric carcinoma cells) are protected from the apoptosis-triggering effect of exogenously added peroxynitrite by their membranous catalase. Addition of catalase inhibitors sensitizes the cells to the effect of exogenous peroxynitrite.
# The experiment was performed in analogy to that described in FIG. 9 except that instead of Anti-KAT a monoclonal antibody against SOD was used. The cells were tested in two different densities, namely 4000 and 12 500 cells per 100 μl. The challenge to test the activity of catalase was carried out with 200 μM peroxynitrite, or 0.5 mM DEA NONOate or 2 mU/ml GOX.
# Subsequently, 200 μM or no peroxynitrite was added. After 1.5 hours the percentages of apoptotic cells were determined in duplicate batches.
# Subsequently, 200 μM or no peroxynitrite was added. After 1 hour the percentages of apoptotic cells were determined in duplicate batches.
# 12 500 MKN-45 cells in 100 μl medium received 100 μM AEBSF or no additive. After 15 minutes the given concentrations of cyanidine were added and the batches were incubated for 15 minutes at 37° C. Subsequently, 200 μM peroxynitrite (PON) were added or the batches were not treated with peroxynitrite (control). After 1 hour the percentages of apoptotic cells were determined in duplicate batches.
# 12 500 MKN-45 cells received no addition (control), or 2 mM histidine, or 100 μM AEBSF or 2.4 mM L-NAME immediately before the addition of the given concentrations of salicylic acid (“0 min”) or 20 minutes after addition of salicyl. 20 minutes after the addition of salicylic acid 200 μM peroxynitrite (PON) were added to all batches except the control batches. After another 2 hours the percentages of apoptotic cells were determined in duplicates.
# Gumbus lymphoma cells = assay: Induction of apoptosis in Gumbus lymphoma cells (percentages of apoptotic cells); type: cell-based, human; details: Gumbus cells
# Procedure: 12 500 MKN-45 gastric carcinoma cells (A) or 25 000 Gumbus lymphoma cells (B) in 100 μl complete medium each either remained untreated (control) or received 2 mM histidine (singlet oxygen scavenger), 50 mM taurine (HOCl scavenger), or 2.4 mM L-NAME (NOS inhibitor). In Experiment A, additionally 10 mM mannitol (hydroxyl radical scavenger), 150 μM ABH (peroxidase inhibitor), 100 U/ml MnSOD (superoxide anion scavenger) and 25 μM FeTPPS (peroxynitrite decomposer) were used. Subsequently, the given concentrations of salicylic acid were added. After 5 hours (A) and 4 hours, respectively, of incubation at 37° C. the percentages of apoptotic cells were determined in duplicate batches according to the classical apoptosis features nuclear condensation, nuclear fragmentation, and membrane blebbing. Here, at least 200 cells were evaluated pre batch. […] Inhibitors: singlet oxygen scavenger histidine 2 mM; HOCl scavenger taurine 50 mM, NOS inhibitor L-NAME 2.4 mM, peroxidase inhibitor ABH 150 μM.
# [1] = test system: MKN-45 gastric carcinoma cells; assay: Induction of apoptosis in MKN-45 gastric carcinoma cells (percentages of apoptotic cells); type: cell-based, human; details: for dependence of the induction of apoptosis on singlet oxygen: 2 mM histidine (singlet oxygen scavenger); for synergistic interaction with salicylic acid in the induction of apoptosis: 6 hours (FIGS. 22-25)
# Procedure: 12 500 MKN-45 cells in 100 μl (duplicate batches) were treated with the given concentrations of salicylic acid or remained free from salicylic acid. After 10 minutes the given concentrations of cyanidine were added.
# 12 500 MKN-45 cells in 100 μl (duplicate batches) were treated with 0.1 μg/ml salicylic acid or remained free from salicylic acid (control). […] After 6.5 hours the percentages of apoptotic cells were determined in duplicate batches.
# 12 500 MKN-45 cells in 100 μl (duplicate batches) either received no additive (control), 2 mM of the singlet oxygen scavenger histidine or 25 μM Caspase-8 inhibitor. […] After another 15 minutes cyanidine was added in the given concentrations. After 6.5 hours of incubation at 37° C. the percentages of apoptotic cells were determined.
# 12 500 MKN-45 cells in 100 μl (duplicate batches) either received no additive (control), 2 mM of the singlet oxygen scavenger histidine or 25 μM Caspase-8 inhibitor. […] After 6.5 hours incubation at 37° C. the percentage of apoptotic cells was determined. […]
# 12 500 MKN-45 cells in 100 μl medium were incubated with increasing concentrations of the given active ingredients, in the presence or absence of 0.1 μg/ml salicylic acid for 6 hours and then, the percentages of the apoptotic cells were determined (repeated determination).
# [2] = 0.1 μg/ml salicylic acid, MKN-45
smiles,measurement,setting,value
CC(=O)O[C@H]1C(=O)[C@@]2(C)[C@H]([C@H](OC(=O)c3ccccc3)[C@]3(O)C[C@H](OC(=O)[C@H](O)[C@@H](NC(=O)c4ccccc4)c4ccccc4)C(C)=C1C3(C)C)[C@]1(OC(C)=O)CO[C@@H]1C[C@@H]2O [taxol],synergistic effect with salicylic acid on catalase inactivation,"tumor cell catalase; 6.25 ng/ml salicylic acid, MKN-45, 1.5 hours (FIG. 21)",synergistic effect on the catalase inactivation
same,dependence of the induction of apoptosis on singlet oxygen,Gumbus lymphoma cells; 2 mM histidine (singlet oxygen scavenger),caused by a fast singlet oxygen-dependent step that inactivates catalase within the first hour
same,ROS signal path of the induced apoptosis (inhibitor profile),"Gumbus lymphoma cells; L-NAME, taurine, ABH","at low concentrations of taxol is via the NO/peroxynitrite path, at higher concentrations via the HOCl path"
same,concentration up to which a necessary involvement of Caspase-8 can be seen,"[1]; alone, 25 μM Caspase-8 inhibitor, MKN-45, 6.5 hours (FIG. 19)",up to 370 ng/ml
same,dependence of the induction of apoptosis on singlet oxygen,"[1]; substance alone, MKN-45",depends on singlet oxygen
C=CCN=C=S [allylisothiocyanate],synergistic interaction with salicylic acid in the induction of apoptosis,[1]; [2],synergistically reacts
N=C(N)NCCC[C@H](N)C(=O)O [arginine],synergistic interaction with salicylic acid in the induction of apoptosis,[1]; [2],synergistically reacts
"Oc1cc(O)c2cc(O)c(-c3ccc(O)c(O)c3)[o+]c2c1.[Cl-] [cyanidine, cyanidine chloride]",catalase inhibition / sensitization to peroxynitrite with inhibited superoxide anion synthesis,"tumor cell catalase; 100 μM AEBSF, MKN-45",do not exhibit sensitivity for peroxynitrite
same,inhibition of tumor cell catalase (sensitization to exogenous peroxynitrite),tumor cell catalase; MKN-45,leads to a sensitization to peroxynitrite
same,"requirement of singlet oxygen, superoxide anions and NO for catalase inhibition/inactivation","tumor cell catalase; 2 mM histidine, 100 μM AEBSF or 2.4 mM L-NAME, MKN-45 (FIGS. 14, 15)","requires singlet oxygen, superoxide anions and NO"
same,"induction of apoptosis, substance alone at the concentration of the combination","[1]; 0.15 ng/ml cyanidine alone, 0.08 μg/ml salicylic acid alone, MKN-45 (FIG. 16)",remained ineffective
same,induction of apoptosis by the combination with salicylic acid,"[1]; 0.15 ng/ml cyanidine with 0.08 μg/ml salicylic acid, MKN-45 (FIG. 16)",maximum induction of apoptosis
same,dependence of the synergistic effect with salicylic acid on Caspase-8,"[1]; 0.1 μg/ml salicylic acid, 25 μM Caspase-8 inhibitor, MKN-45, 6.5 hours (FIGS. 18, 19)",independent of Caspase-8
same,dependence of the synergistic effect with salicylic acid on singlet oxygen,"[1]; 0.1 μg/ml salicylic acid, 2 mM histidine, MKN-45, 6.5 hours (FIGS. 18, 19)",also based on the effect of singlet oxygen
same,synergistic effect with salicylic acid in the induction of apoptosis,"[1]; 0.1 μg/ml salicylic acid, MKN-45, 6.5 hours (FIG. 17)",remarkable synergistic effect
same,EC50,"[1]; Homo sapiens, applied alone, MKN-45, 6 hours (FIG. 16), read-out: concentration at half-maximum value of induction of apoptosis",~0.02 µg/mL
same,concentration at optimum of induction of apoptosis,"[1]; applied alone, MKN-45, 6 hours (FIG. 16)",0.3 µg/mL
same,synergistic effect with salicylic acid in the induction of apoptosis,"[1]; given concentrations of salicylic acid, MKN-45, 6 hours (FIG. 16)",considerable synergistic effect
same,dependence of the induction of apoptosis on Caspase-8,"[1]; substance alone, 25 μM Caspase-8 inhibitor, MKN-45",depends on the activity of dead receptors (such as FAS) and the thus activated Caspase-8
same,dependence of the induction of apoptosis on singlet oxygen,"[1]; substance alone, MKN-45",depends on singlet oxygen
same,induction of apoptosis,"[1]; substance alone, 12 500 MKN-45 cells in 100 μl, 4-6.5 hours at 37° C.",concentration-dependent induction of apoptosis
C=CCSSCC=C [diallyldisulfide],synergistic interaction with salicylic acid in the induction of apoptosis,[1]; [2],synergistically reacts
C=CCSCC=C [diallylsulfide],synergistic interaction with salicylic acid in the induction of apoptosis,[1]; [2],not
CCCCCCCCCCCCCCCC(=O)O [palmitic acid],synergistic interaction with salicylic acid in the induction of apoptosis,[1]; [2],synergistically reacts
C[C@@H]1CC[C@H]2[C@@H](C)C(=O)O[C@@H]3O[C@@]4(C)CC[C@@H]1[C@]32OO4 [artemisinin],synergistic interaction with salicylic acid in the induction of apoptosis,[1]; [2],synergistically reacts
N=C(NO)NCC[C@H](N)C(=O)O [NOR-NOHA],synergistic interaction with salicylic acid in the induction of apoptosis,[1]; [2],synergistically reacts
COc1cc(O)c(CC=C(C)C)c(O)c1C(=O)/C=C/c1ccc(O)cc1 [xanthohumol],synergistic interaction with salicylic acid in the induction of apoptosis,[1]; [2],synergistically reacts
O=C1O[C@H]([C@@H](O)CO)C(O)=C1O [ascorbic acid],inhibition of tumor cell catalase (sensitization to exogenous peroxynitrite),tumor cell catalase; MKN-45,directly inhibit catalase
same,synergism with cyanidine in the induction of apoptosis,[1],Synergism is achieved
same,synergism with taxol in the induction of apoptosis,[1],Synergism is achieved
O=c1c(O)c(-c2ccc(O)c(O)c2)oc2cc(O)cc(O)c12 [quercetin],synergistic interaction with salicylic acid in the induction of apoptosis,[1]; [2],synergistically reacts
COc1cc(O)c(CC=C(C)C)c2c1C(=O)CC(c1ccc(O)cc1)O2 (centres unmarked) [isoxanthohumol],synergistic interaction with salicylic acid in the induction of apoptosis,[1]; [2],synergistically reacts
